Assay results published in US20170050957A1, “4-AMINO-6-(HETEROCYCLIC)PICOLINATES AND 6-AMINO-2-(HETEROCYCLIC)PYRIMIDINE-4-CARBOXYLATES AND THEIR USE AS HERBICIDES” (Dow AgroSciences LLC, priority 2013, published 2017).
Read-outs that look alike come from different tables or passages of the source.

Legend:
[1] = system: Key Broadleaf Weed and Crop Species; assay: Post-emergent Test II herbicidal activity (Table 15); format: in vivo; conditions: post-emergence, 336 h, 14 d; for pest or weed control at 35 g/ha: 35 g ai/ha; for pest or weed control at 70 g/ha: 70 g ai/ha; for pest or weed control at 140 g/ha: 140 g ai/ha
Procedure, shortened: (§1)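 Plants grown in greenhouse (~15 h photoperiod, 23-29 °C day, 22-28 °C night) to first or second true leaf stage, then sprayed post-emergence at 187 L/ha with a high rate and 1/2×, 1/4×, 1/8× and 1/16× dilutions. Injury scored visually after 14 d, 0-100% versus untreated plants.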

[2] = system: Key Grass and Sedge Weeds as well as Grass Crops; assay: Post-emergent Test II herbicidal activity (Table 16); format: in vivo; conditions: post-emergence, 336 h, 14 days after application; for pest or weed control at 35 g/ha: 35 g ai/ha; for pest or weed control at 70 g/ha: 70 g ai/ha; for pest or weed control at 140 g/ha: 140 g ai/ha
Procedure, shortened: as §1

[3] = Abutilon theophrasti, velvetleaf (Abutilon theophrasti), read-out: Visual Growth Reduction (%) 14 Days After Application, ABUTH
[4] = Amaranthus retroflexus, redroot pigweed (Amaranthus retroflexus), read-out: Visual Growth Reduction (%) 14 Days After Application, AMARE
[5] = Brassica napus, oilseed rape, canola (Brassica napus), read-out: Visual Growth Reduction (%) 14 Days After Application, BRSNN
[6] = Chenopodium album, lambsquarters (Chenopodium album), read-out: Visual Growth Reduction (%) 14 Days After Application, CHEAL
[7] = Euphorbia heterophylla, wild poinsettia (Euphorbia heterophylla), read-out: Visual Growth Reduction (%) 14 Days After Application, EPHHL
[8] = Helianthus annuus, sunflower (Helianthus annuus), read-out: Visual Growth Reduction (%) 14 Days After Application, HELAN
[9] = Cyperus esculentus, yellow nutsedge (Cyperus esculentus), read-out: Visual Growth Reduction (%) 14 Days After Application CYPES
[10] = Echinochloa crus-galli, barnyardgrass (Echinochloa crus-galli), read-out: Visual Growth Reduction (%) 14 Days After Application ECHCG
[11] = Oryza sativa, rice (Oryza sativa), read-out: Visual Growth Reduction (%) 14 Days After Application ORYSA
[12] = Setaria faberi, giant foxtail (Setaria faberi), read-out: Visual Growth Reduction (%) 14 Days After Application SETFA
[13] = Triticum aestivum, wheat, spring (Triticum aestivum), read-out: Visual Growth Reduction (%) 14 Days After Application TRZAS
[14] = Zea mays, maize, corn (Zea mays), read-out: Visual Growth Reduction (%) 14 Days After Application ZEAMX

COC(=O)c1nc(-c2ccc3cn[nH]c3c2)cc(N)c1Cl [Compound 4.09] gave a melting point of 191 to 193 °C, a pest or weed control at 35 g/ha [1, 3] of 0 to 29% and a pest or weed control at 70 g/ha [1, 3] of 0 to 29%. It also gave a pest or weed control at 140 g/ha [1, 3] of 0 to 29%, a pest or weed control at 35 g/ha [1, 4] of 0 to 29% and a pest or weed control at 70 g/ha [1, 4] of 45 to 59%. For the same compound, the pest or weed control at 140 g/ha [1, 4] was 85 to 94%, the pest or weed control at 35 g/ha [1, 5] was 0 to 29% and the pest or weed control at 70 g/ha [1, 5] was 0 to 29%. It also gave a pest or weed control at 140 g/ha [1, 5] of 60 to 74%, a pest or weed control at 35 g/ha [1, 6] of 45 to 59% and a pest or weed control at 70 g/ha [1, 6] of 75 to 84%. For the same compound, the pest or weed control at 140 g/ha [1, 6] was 85 to 94%, the pest or weed control at 35 g/ha [1, 7] was 0 to 29% and the pest or weed control at 70 g/ha [1, 7] was 0 to 29%. It also gave a pest or weed control at 140 g/ha [1, 7] of 0 to 29%, a pest or weed control at 35 g/ha [1, 8] of 0 to 29% and a pest or weed control at 70 g/ha [1, 8] of 30 to 44%. The pest or weed control at 140 g/ha [1, 8] was 45 to 59%, the pest or weed control at 35 g/ha [2, 9] was 0 to 29% and the pest or weed control at 70 g/ha [2, 9] was 0 to 29%. It also gave a pest or weed control at 140 g/ha [2, 9] of 0 to 29%, a pest or weed control at 35 g/ha [2, 10] of 0 to 29% and a pest or weed control at 70 g/ha [2, 10] of 0 to 29%. For the same compound, the pest or weed control at 140 g/ha [2, 10] was 0 to 29%, the pest or weed control at 35 g/ha [2, 11] was 0 to 29% and the pest or weed control at 70 g/ha [2, 11] was 0 to 29%. It also gave a pest or weed control at 140 g/ha [2, 11] of 0 to 29%, a pest or weed control at 35 g/ha [2, 12] of 0 to 29% and a pest or weed control at 70 g/ha [2, 12] of 0 to 29%. It also gave a pest or weed control at 140 g/ha [2, 12] of 0 to 29%, a pest or weed control at 35 g/ha [2, 13] of 0 to 29% and a pest or weed control at 70 g/ha [2, 13] of 0 to 29%. It also gave a pest or weed control at 140 g/ha [2, 13] of 0 to 29%, a pest or weed control at 35 g/ha [2, 14] of 0 to 29% and a pest or weed control at 70 g/ha [2, 14] of 0 to 29%. It also gave a pest or weed control at 140 g/ha [2, 14] of 0 to 29%.

In the case of Nc1c(Cl)c(C(=O)O)nc(-c2ccc3ccsc3c2)c1Cl [Compound 3.11], the melting point was 239 °C (dec.), the pest or weed control at 35 g/ha [1, 3] was 0 to 29% and the pest or weed control at 70 g/ha [1, 3] was 0 to 29%. The pest or weed control at 140 g/ha [1, 3] was 0 to 29%, the pest or weed control at 35 g/ha [1, 5] was 0 to 29% and the pest or weed control at 70 g/ha [1, 5] was 0 to 29%. It also gave a pest or weed control at 140 g/ha [1, 5] of 0 to 29%, a pest or weed control at 35 g/ha [1, 6] of 85 to 94% and a pest or weed control at 70 g/ha [1, 6] of 85 to 94%. It also gave a pest or weed control at 140 g/ha [1, 6] of 85 to 94%, a pest or weed control at 35 g/ha [1, 7] of 0 to 29% and a pest or weed control at 70 g/ha [1, 7] of 0 to 29%. For the same compound, the pest or weed control at 140 g/ha [1, 7] was 0 to 29%, the pest or weed control at 35 g/ha [1, 8] was 85 to 94% and the pest or weed control at 70 g/ha [1, 8] was 85 to 94%. It also gave a pest or weed control at 140 g/ha [1, 8] of 85 to 94%, a pest or weed control at 35 g/ha [2, 9] of 0 to 29% and a pest or weed control at 70 g/ha [2, 9] of 0 to 29%. The pest or weed control at 140 g/ha [2, 9] was 0 to 29%, the pest or weed control at 35 g/ha [2, 10] was 0 to 29% and the pest or weed control at 70 g/ha [2, 10] was 0 to 29%. The pest or weed control at 140 g/ha [2, 10] was 0 to 29%, the pest or weed control at 35 g/ha [2, 11] was 0 to 29% and the pest or weed control at 70 g/ha [2, 11] was 0 to 29%. It also gave a pest or weed control at 140 g/ha [2, 11] of 0 to 29%, a pest or weed control at 35 g/ha [2, 12] of 0 to 29% and a pest or weed control at 70 g/ha [2, 12] of 0 to 29%. It also gave a pest or weed control at 140 g/ha [2, 12] of 0 to 29%, a pest or weed control at 35 g/ha [2, 13] of 0 to 29% and a pest or weed control at 70 g/ha [2, 13] of 0 to 29%. The pest or weed control at 140 g/ha [2, 13] was 0 to 29%, the pest or weed control at 35 g/ha [2, 14] was 0 to 29% and the pest or weed control at 70 g/ha [2, 14] was 0 to 29%. The pest or weed control at 140 g/ha [2, 14] was 0 to 29%.
